# Experiments:
# [1] = tested on: collagen-induced platelet aggregation; experiment: Platelet aggregation tests; assay type: cell-based, human (healthy volunteers); conditions: collagen 2.5 μg/ml, 10 minutes' incubation; for ED50 (platelet aggregation): human blood
# Procedure: In these tests, blood samples were taken from healthy volunteers with a platelet content of at least 300,000/mm^3. The method described by Born (Born J. V. R. J. Physiol., 26:25 1963) was used to induce platelet aggregation.
# Platelet aggregation was induced by collagen (2.5 μg/ml) and measured both at the beginning and after 10 minutes' incubation with propionyl L-carnitine, acetyl L-carnitine, Ginkgo biloba extract or with these compounds in various combinations.
# [2] = tested on: pheochromocytoma cells (PC-12); experiment: Tests of H2O2 toxicity on pheochromocytoma cells (PC-12); assay type: cell-based; conditions: 10^−8 M; PC-12, H2O2 30 minutes, 24 hours of observation; H2O2 alone approximately 38%
# Procedure: In these tests, a pheochromocytoma cell (PC-12) culture was used containing 3×10^5 M cells/ml which was submitted for 30 minutes to 0.1 g mM H2O2.
# PAF-induced mortality = PAF-induced mortality tests; assay type: in vivo, albino mice; conditions: 300 mg/kg i.p. one hour before PAF 20 μg/kg i.v., mice
# Procedure: Platelet-activating factor (PAF) is an acetylated alkyl phosphoglyceride whose release in the body, under various stimuli, causes circulatory-type reactions related mainly to increased capillary permeability, with consequent extravasation of blood, increased platelet aggregation and thrombosis, reduced coronary flow, release of inflammatory factors, lysosomal enzymes and superoxides.
# When administered intravenously (20 μg/kg) to animals, PAF causes the death of the animals treated with it in a short space of time, i.e. approximately one hour, mainly as a result of cardiocirculatory collapse.
# A series of tests was conducted using the method described by Young (Young J. N., Prostaglandins 30:545, 1985) and by Myers (Myers H., Br. J. Pharmacol., 79:595, 1983) in order to assess whether Ginkgo biloba extracts (whose anti-PAF activity is known) protect animals injected with PAF against death and whether the carnitines (particularly propionyl L-carnitine, whose vascular regulatory activity is known) are capable of increasing the protective effect against PAF.
# The tests were conducted on albino mice with a mean weight of 25 g divided into various groups, the first of which served as control group and received intravenous injections of PAF at the dose of 20 μg/kg, while the other groups were administered intraperitoneal injections, one hour before to PAF administration, either of Ginkgo biloba extract, or of the various carnitines alone or in combination, or of Ginkgo biloba plus carnitines.
# [3] = tested on: cerebral ischaemia induced by endothelin-1 (MCA occlusion); experiment: Tests of protection against experimentally induced cerebral ischaemia (endothelin-1, MCA occlusion); assay type: in vivo; conditions: rat; i.v. 5 minutes after endothelin-1; propionyl/acetyl L-carnitine 50 mg/kg, Ginkgo biloba 10 mg/kg; checked after 3 days
# Procedure: Since a major responsible for causing damage following cerebral ischaemia is known to be the production of superoxides and free radicals (Litton S. A., Nature, 364:625, 1993), in these tests cerebral ischaemia was brought about by occluding the middle cerebral artery (MCA) of the rat according to the method described by Scharkey (Scharkey Y., Nature, 371:336, 1994) by injecting to the anaesthetized animal endothelin-1 (120 pml), for a duration of 3 minutes with a microcannula placed stereotactically in the pyriform cortex at the level of the middle cerebral artery (MCA).
# The ischaemic area thus produced was checked after 3 days with transcardiac perfusion of paraformaldehyde solution (4% in PBS).
# After removing the brain and placing it in a fixator containing 10% saccharose, cryostat sections were fixed in methyl violet and examined under the optical microscope.
# The administration of propionyl L-carnitine (50 mg/kg), acetyl L-carnitine (50 mg/kg) and of a solution of Ginkgo biloba (10 mg/kg), or these compounds in combination, was performed intravenously 5 minutes following injection of endothelin-1.
# The volume of the infarcted area was calculated according to the method described by Park (Park C., Anns. Neurol., 20:150, 1989).
# [4] = tested on: PAF-induced oedema of the rat paw; experiment: PAF-induced inflammatory reaction tests (paw oedema, plethysmographic); assay type: in vivo; conditions: 300 mg/kg i.p. one hour before PAF 2 μg into rear paw, rats
# Procedure: In these experiments, a solution containing PAF was injected into the paws of rats according to the method described by Burstein (Burstein S. H., J. Pharmacol. Exptl. Ther., 251:531, 1989).
# As is known, PAF injected into the rat paw causes the release of numerous phlogogenic substances, including prostaglandins, which gives rise in a short time to the onset of marked oedema (Bonnet J., J. Agent Actions, 11:559, 1981).
# Using the method described by Goldenberg (Goldenberg M. M., Prostaglandins, 28:271, 1984) and Silva (Silva P. M. R., Inflammation, 10:393, 1986), a solution of PAF at an overall dose of 2 μg was injected into the rear paws of rats, and the ensuing oedematous reaction was evaluated with a plethysmographic method according to the technique described by Ferreira (Ferreira S. H., J. Pharmacol., 127:83, 1979).
# The tests were conducted in various groups of rats, one of which was a control group, while the others received intraperitoneal administrations, one hour before to PAF injection, of acetyl L-carnitine (300 mg/kg), or propionyl L-carnitine (300 mg/kg), or of a combination of L-carnitine (75 mg/kg), acetyl L-carnitine (75 mg/kg) and propionyl L-carnitine (75 mg/kg), or of a Ginkgo biloba extract (100 mg/kg), or of the Ginkgo biloba extract plus carnitines.
# [5] = tested on: pitressin-induced coronary spasm; experiment: Coronary spasm tests (pitressin); assay type: in vivo, rat; conditions: oral, three days before pitressin i.v.; Ginkgo biloba extract 100 mg/kg, carnitines or carnitine mixture 300 mg/kg; number of rats
# Description: Enhancement of the activity of Ginkgo biloba when combined with carnitines was also found on evaluating the effects of the administration of these substances alone and in combination on pitressin-induced experimental coronary spasm.
# As is known, intravenous injection of 1 v/kg of pitressin in the rat causes characteristic electrocardiographic abnormalities which are most noticeable in lead II as affecting the T wave (asphyxial T wave) due to the diminished myocardial oxygenation related to the reduced coronary flow caused by the pitressin-induced vascular spasm.
# In these tests, before being injected with pitressin, the rats received oral administrations for three days consecutively of 100 mg/kg of Ginkgo biloba extracts, or of 300 mg/kg of carnitines alone or carnitine mixture, or of carnitine or carnitine mixture in combination with Ginkgo biloba.
SMILES,reduction of platelet aggregation (in words) [1],ED50 (platelet aggregation) [1],survival of the cells [2],% mortality 1 h after PAF injection (PAF-induced mortality),magnitude of ischaemia (volume mm^3) due to MCA occlusion [3],% reduction of oedema [4],Rats not protected [5],Rats protected [5],Rats weakly protected [5]
"CC(=O)O[C@H](CC(=O)[O-])C[N+](C)(C)C [Acetyl L-carnitine, acetyl L-carnitine]",only to a slight extent,26.4 ± 0.34 µg,55%,80/100,21.6 ± 1.8 mm^3,15%,3,1,3
"CCC(=O)O[C@H](CC(=O)[O-])C[N+](C)(C)C [Propionyl L-carnitine, propionyl L-carnitine]",only to a slight extent,30.5 ± 0.41 µg,45%,80/100,32.6 ± 2.4 mm^3,35%,4,2,3
C[N+](C)(C)C[C@H](O)CC(=O)[O-] [L-carnitine],,,,90/100,,10%,3,0,1

# From US6641849B1, “Composition for the prevention and/or treatment of circulatory disorders, comprising derivatives of L-carnitine and extracts of ginkgo biloba” (Sigma-Tau HealthScience S.p.A., priority 1999, dated 2003)
